The supplement of paper PMC10307832

Tests used:
Assay in all cases: relative viability (nuclei count vs DMSO), 5 days (fraction); higher = more cells survive
Zosuquidar + Dasatinib = compound: O[C@@H](COc1cccc2ncccc12)CN1CCN([C@@H]2c3ccccc3[C@@H]3[C@H](c4ccccc42)C3(F)F)CC1 [Zosuquidar] + Cc1nc(Nc2ncc(C(=O)Nc3c(C)cccc3Cl)s2)cc(N2CCN(CCO)CC2)n1 [Dasatinib] (partner 0.075 µM)
Method in brief: (§1)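 Lung cancer cell lines were seeded in 1536-well plates and dosed by pin tool the next day, with either a single drug or a fixed anchor-drug dose combined with five library-drug doses (not always all listed) spaced in √10 steps. Five days later, one step fixed the cells and stained their nuclei (final 0.05% Triton X-100, 1% formaldehyde, 1 ug/ml Hoechst), and nuclei were counted on 4× images. Relative viability is the nuclei count in treated wells divided by the count in vehicle wells, and each value is the median of duplicate plates.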

[1] = compound: COc1cc2nccc(Oc3ccc(NC(=O)C4(C(=O)Nc5ccc(F)cc5)CC4)cc3)c2cc1OC [Cabozantinib] + C[C@@H](Oc1cc(-c2cnn(C3CCNCC3)c2)cnc1N)c1c(Cl)ccc(F)c1Cl [Crizotinib] (partner 1 µM)
Method in brief: as §1

Cabozantinib + Lapatinib = compound: COc1cc2nccc(Oc3ccc(NC(=O)C4(C(=O)Nc5ccc(F)cc5)CC4)cc3)c2cc1OC [Cabozantinib] + CS(=O)(=O)CCNCc1ccc(-c2ccc3ncnc(Nc4ccc(OCc5cccc(F)c5)c(Cl)c4)c3c2)o1 [Lapatinib] (partner 2 µM)
Method in brief: as §1

| Cell Line | relative viability (Zosuquidar + Dasatinib; first compound 0.01 µM) | relative viability (Zosuquidar + Dasatinib; first compound 0.03162 µM) | relative viability (Zosuquidar + Dasatinib; first compound 0.1 µM) | relative viability (Zosuquidar + Dasatinib; first compound 0.3162 µM) | relative viability (Zosuquidar + Dasatinib; first compound 1 µM) | relative viability ([1]; first compound 0.02 µM) | relative viability ([1]; first compound 0.06325 µM) | relative viability ([1]; first compound 0.2 µM) | relative viability ([1]; first compound 0.6325 µM) | relative viability ([1]; first compound 2 µM) | relative viability (Cabozantinib + Lapatinib; first compound 0.02 µM) | relative viability (Cabozantinib + Lapatinib; first compound 0.06325 µM) | relative viability (Cabozantinib + Lapatinib; first compound 0.2 µM) | relative viability (Cabozantinib + Lapatinib; first compound 0.6325 µM) | relative viability (Cabozantinib + Lapatinib; first compound 2 µM) |
| --- | --- | --- | --- | --- | --- | --- | --- | --- | --- | --- | --- | --- | --- | --- | --- |
| SW 900 | 0.795 | 0.609 | 0.57 | 0.545 | 0.61 |  |  |  |  |  |  |  |  |  |  |
| NCI-H1563 | 0.435 | 0.47 | 0.51 | 0.459 | 0.454 | 0.948 | 1.03 | 0.904 | 0.77 | 0.802 | 0.946 | 0.966 | 1.04 | 0.844 | 1.21 |
| NCI-H1395 | 0.404 | 0.378 | 0.307 | 0.406 | 0.431 |  |  |  |  |  | 0.913 | 1.03 | 0.948 | 1.1 | 0.905 |
| Calu-6 |  |  |  |  |  | 0.788 | 0.925 | 0.742 | 0.75 | 0.773 | 1.14 | 1.2 | 1.15 | 0.986 | 1.05 |
| NCI-H1793 | 0.375 | 0.3 |  | 0.489 | 0.488 |  |  |  |  |  | 0.95 | 1.15 | 0.571 | 0.508 | 0.594 |
| EBC-1 |  |  |  |  |  | 0.194 | 0.173 | 0.182 | 0.198 | 0.213 | 0.192 | 0.17 | 0.242 | 0.195 | 0.213 |
| NCI-H2342 | 0.275 | 0.312 | 0.327 | 0.313 | 0.299 |  |  |  |  |  |  |  |  |  |  |
| NCI-H1703 |  |  |  |  |  |  | 0.296 | 0.172 | 0.249 | 0.175 |  | 0.587 | 0.337 | 0.282 | 0.231 |
| ChaGo-K-1 | 0.615 | 0.583 | 0.602 | 0.737 | 0.624 | 1.24 | 1.3 | 1.18 | 1.13 | 1.09 |  |  |  |  |  |
| NCI-H441 | 0.521 | 0.606 | 0.574 | 0.683 | 0.718 | 0.684 | 0.799 | 0.857 | 0.717 | 0.668 |  |  |  |  |  |
| HCC-44 |  |  |  |  |  | 0.855 | 0.85 | 0.841 | 0.834 | 0.85 | 1.09 | 1.12 | 1 | 1.11 | 1.04 |
| NCI-H522 | 0.933 | 0.739 | 0.867 | 0.853 | 1.45 |  |  |  |  |  |  |  |  |  |  |
| A549 |  |  |  |  |  | 0.812 | 0.853 | 0.787 | 0.79 | 0.729 | 0.996 | 1.03 | 0.872 | 0.926 | 0.807 |
| LCLC-103H | 0.429 | 0.447 | 0.399 | 0.488 | 0.537 | 1 | 1.09 | 1.09 | 1.02 | 1.04 |  |  |  |  |  |
